Patent publication US6235791A, “Use of amines to produce drugs for preventing tumor cell proliferation” (Sanofi-Synthelabo, priority 1996, dated 2001)

Columns and labels:
human myeloma RPMI 8226 = test: MTT colorimetric proliferation test, 5 days; assay type: cell-based; settings: 120 h, read-out: percentage of cell proliferation relative to the untreated control taken as 100%
Method: (§1) Among other cells used, the following lines were routinely cultured in RPMI medium supplemented with 10% foetal calf serum (FCS):
(§2) The antitumour activity is measured according to the colorimetry method using MTT, 3-(4,5-dimethylthiazole-2,5-diphenyltetrazolium) bromide as described by Mosmann T., Journ. of Im. Methods; 1983, 65, 55.
(§3) This colorimetric assay makes it possible to measure quantitatively the antitumour activity of a solution containing a compound used according to the invention.
(§4) According to the procedure used, the suspended cells (such as the myeloma cells) are inoculated at 2×10^3 cells/ml in 1 ml wells in defined medium. The adherent cells (such as the MCF-7 cells) are inoculated at 5×10^4 cells/ml in 1 ml wells in RPMI medium+0.5% FCS overnight. The next day, the cell carpet is washed twice and replaced by the defined medium.
(§5) The defined medium corresponds to: RPMI+10 μg/ml insulin+10 μg/ml human transferrin.
(§6) In order to carry out this test, cells are maintained in the presence of the solution containing a compound used according to the invention for 5 days, and the MTT is then added to the culture medium.
(§7) The 5 day period which was selected corresponds to the optimum time for the activity. After culturing for 5 days, the proliferation of the cells is measured by the test described above. The optical density at 570 nm is measured. A blue coloration develops in the wells where the cells are still alive. The intensity of the coloration is proportional to the quantity of live cells.

[1] = test system: human mammary carcinoma MCF-7; test: MTT colorimetric proliferation test, 5 days; assay type: cell-based; settings: MCF7, 120 h, read-out: percentage of cell proliferation relative to the untreated control taken as 100%
Method: as §1
human mammary carcinoma MCF-7
as §2, §3, §4, §5, §6, §7

293 = test: MTT colorimetric proliferation test, 5 days; assay type: cell-based; settings: Homo sapiens, read-out: percentage of cell proliferation relative to the untreated control taken as 100%
Method: as §1
human kidney carcinoma 294
as §2, §3, §4, §5, §6, §7

[2] = test system: human lung carcinoma A549; test: MTT colorimetric proliferation test, 5 days; assay type: cell-based; settings: 120 h, read-out: percentage of cell proliferation relative to the untreated control taken as 100%
Method: as §1
human lung carcinoma A549
as §2, §3, §4, §5, §6, §7

MCF7 + E2 10-9M = test: proliferation of mammary epithelial cells, IC50 after 6 days, with oestradiol; assay type: cell-based, human; settings: for IC50: MCF7 + E2 10^-9M, 0.5% FCS, 6 days of treatment
Method: (§8) Another study was also performed in order to determine the effect of SR 31747 on the in vitro and in vivo growth of mammary and prostate epithelial tumour cells.
(§9) The study consisted in evaluating the potential antitumour activity of SR 31747 on the growth of a variety of cancerous breast epithelial lines. The study is carried out in vitro on cell cultures, as well as in vivo after inoculation of tumoral mammary lines in "nude" athymic mice.
(§10) The cell lines which were used are as follows:
(§11) The hormone-sensitive MCF-7 line originates from a pleural effusion of a breast adenocarcinoma. The antioestrogen-resistant MCF-7LY2 cells were obtained from the MCF-7LCC1 and MCF-7LCC2 lines were developed in nude mice, after inoculation of the MCF-7 cells. The two lines are oestrogen-independent. The MCF-7CC2 cells are also antioestrogen-resistant. The MCF-7AZTD5 line is derived from the MCF-7 line after stable transfection with the H-ras oncogene. The MCF-7AZTD5 cells are antioestrogen-resistant in vitro. All of these lines are maintained on DMEM/F12 (1/1, vol/vol) containing 10% decomplemented foetal calf serum and 16 ng/ml of human insulin. The MCF-7LCC2 line is cultured in the permanent presence of 10^-7 M hydroxytamoxifen. The MDA-MB231 tumoral mammary epithelial cells are oestrogen- and antioestrogen-insensitive. They are cultured in L15 medium supplemented with 10% FCS, 1% essential amino acids and 10 μg/ml of human insulin.
All the lines are maintained at 37° C. in a humid air/CO2 (95%/5%) atmosphere, except for the MDA-MB231 cells which are cultured in the absence of CO2. THe cell lines are checked regularly free of mycoplasms.
Table B--Effect of SR 31747 on the proliferation of mammary epithelial cells. Determination of the IC50 after 6 days of treatment--medium changed every 48 hours

[3] = test system: mammary tumoral epithelial cells; test: proliferation of tumoral breast epithelial lines, summary statements; assay type: cell-based
Method: as §8, §9, §10
as §11, with “They are cultured in L15 medium supplemented with 10% FCS, 1% essential amino acids and 10 μg/ml of human insulin.” left out

MDA-MB231 cells = test: tumours developed in ovariectomized nude mice from MDA-MB231 cells; assay type: in vivo; settings: 500 μg SR 31747 + E2 daily intraperitoneally, to day 92
Method: The inoculation and treatment of the animals were carried out as follows:
The animals used are "nude" female athymic mice, which may or may not have been ovariectomized, obtained at 4 weeks old (R. Janvier). Before inoculating the hormone-sensitive mammary cells (MCF-7, MCF-7AZTD5), the animals receive 10 μl pf ethanolic 10 ^-5 oestradiol solution applied percutaneously. The treatment is repeated three times over one week. One million cells suspended in 100 μl of PBS/Ca are inoculated subcutaneously above each of the hips. The following day, the animals receive 200 μl of injection solution (ethanol/Tween 80/physiological saline, 1/1/18, vol/vol) containing the various reactions at the predefined concentrations. The injections are made intraperitoneally and are repeated every day.
FIGS. 1 and 2 indicate the effect of SR 31747 on tumours developed in ovariectomized "nude" mice from MDA-MB231 cells.
Each mouse receives 5×10^6 MDA-MB231 cells above each hip (i.e. 2 points of inoculation per mouse). The animals are then treated daily via the intraperitoneal route and receive 500 μg SR 31747+0.003 μg E2 (20 mice). The control batch receives 0.0003 μg E2 (20 mice). The amount (as a percentage of inoculated tumours) and size of the tumours developed are determined at different times in the course of the treatment. At the end of the treatment (day 92), the animals are sacrificed and weighed. […]

**Q.** With `CCN(C/C=C\c1ccc(C2CCCCC2)c(Cl)c1)C1CCCCC1` [SR 31747, cis-N-Cyclohexyl-N-ethyl [3-(3-chloro-4-cyclo-hexylphenyl)allyl]amine] as the molecule, how does the activity at 10 pM (human myeloma RPMI 8226; RPMI 8226, 10 pM) read?
**A.** 100%

**Q.** What about the activity at 0.0001 µM (human myeloma RPMI 8226; RPMI 8226, 100 pM) of the same molecule?
**A.** 91%

**Q.** What about the activity at 0.001 µM (human myeloma RPMI 8226; RPMI 8226, 1 nM) of the same molecule?
**A.** 79%

**Q.** And the activity at 0.01 µM (human myeloma RPMI 8226; RPMI 8226, 10 nM)?
**A.** 66%

**Q.** What about the activity at 0.1 µM (human myeloma RPMI 8226; RPMI 8226, 100 nM) of the same molecule?
**A.** 54%

**Q.** What about the activity at 1 µM (human myeloma RPMI 8226; RPMI 8226, 1 μM) of the same molecule?
**A.** 9%

**Q.** And the activity at 10 µM (human myeloma RPMI 8226; RPMI 8226, 10 μM)?
**A.** 6%

**Q.** What about the activity at 10 pM ([1]; MCF-7, 10 pM) of the same molecule?
**A.** 100%

**Q.** What about the activity at 0.0001 µM ([1]; MCF-7, 100 pM) of the same molecule?
**A.** 100%

**Q.** And the activity at 0.001 µM ([1]; MCF-7, 1 nM)?
**A.** 83%

**Q.** What about the activity at 0.01 µM ([1]; MCF-7, 10 nM) of the same molecule?
**A.** 75%

**Q.** What about the activity at 0.1 µM ([1]; MCF-7, 100 nM) of the same molecule?
**A.** 58%

**Q.** What about the activity at 1 µM ([1]; MCF-7, 1 μM) of the same molecule?
**A.** 34%

**Q.** And the activity at 10 µM ([1]; MCF-7, 10 μM)?
**A.** 5%

**Q.** What about the activity at 10 pM (293; HEK293, 120 h, 293, 10 pM) of the same molecule?
**A.** 100%

**Q.** What about the activity at 0.0001 µM (293; HEK293, 120 h, 293, 100 pM) of the same molecule?
**A.** 84%

**Q.** What about the activity at 0.001 µM (293; HEK293, 120 h, 293, 1 nM) of the same molecule?
**A.** 80%

**Q.** What about the activity at 0.01 µM (293; HEK293, 120 h, 293, 10 nM) of the same molecule?
**A.** 43%

**Q.** And the activity at 0.1 µM (293; HEK293, 120 h, 293, 100 nM)?
**A.** 36%

**Q.** And the activity at 1 µM (293; HEK293, 120 h, 293, 1 μM)?
**A.** 10%

**Q.** What about the activity at 10 µM (293; HEK293, 120 h, 293, 10 μM) of the same molecule?
**A.** 7%

**Q.** And the activity at 10 pM ([2]; A549, 10 pM)?
**A.** 100%

**Q.** What about the activity at 0.0001 µM ([2]; A549, 100 pM) of the same molecule?
**A.** 88%

**Q.** And the activity at 0.001 µM ([2]; A549, 1 nM)?
**A.** 56%

**Q.** What about the activity at 0.01 µM ([2]; A549, 10 nM) of the same molecule?
**A.** 50%

**Q.** And the activity at 0.1 µM ([2]; A549, 100 nM)?
**A.** 38%

**Q.** And the activity at 1 µM ([2]; A549, 1 μM)?
**A.** 14%

**Q.** What about the activity at 10 µM ([2]; A549, 10 μM) of the same molecule?
**A.** 10%

**Q.** What about the IC50 (MCF7 + E2 10-9M; Homo sapiens, MCF7, 144 h) of the same molecule?
**A.** 400 nM

**Q.** What about the IC50 (MCF7 + E2 10-9M) of the same molecule?
**A.** 300 nM

**Q.** And the “reversal of the stimulatory action of oestradiol” value (MCF7 + E2 10-9M; hormone-sensitive MCF-7 line)?
**A.** incapable of reversing the stimulatory action of oestradiol

**Q.** What about the “inhibition of cell proliferation at high concentration (cytotoxic effects)” value ([3]; 10^-6 M and occasionally 10^-7 M SR 31747) of the same molecule?
**A.** virtually total inhibitions of the cell proliferation

**Q.** What about the “action on the proliferation of tumor epithelial lines” value ([3]; reduced concentrations of saline (serum)) of the same molecule?
**A.** exerts an inhibitory action on the proliferation of all the tumor epithelial lines tested

**Q.** And the “size, weight and frequency of tumours developed” value (MDA-MB231 cells)?
**A.** tendency to reduce the size, weight and frequency of tumours
